Legend:
crops and trees = conditions: cited from earlier work
[1] = tested on: potted pears (variety: Niju-seiki); experiment: Test of Phytotoxicity to Pears; format: in vivo, pear; conditions: 75% Wettable Powders, two weeks
From the text: Test of Phytotoxicity to Pears
After air-drying, the potted pears are allowed to stand in a greenhouse.

[2] = tested on: potted apples (variety: Star King); experiment: Test of Phytotoxicity to Apples; conditions: 75% Wettable Powders, dilution × 750, 600 l/10 a, two weeks
Experimental: The resulting solution of wettable powders is sprayed, in an amount corresponding to 600 l/10a per pot, on potted apples (variety: Star King) immediately after fresh leaves are unfolded. After air-drying, the potted apples are allowed to stand in a greenhouse. Two weeks after the spray treatment, the phytotoxicity, of the compound according to the present invention, to the potted apples is examined.
For comparison, the above test is also carried out using a reference compound (fluoroimide) and plain water.

Venturia inaequalis = experiment: Apple Scab-controlling Test; format: in vivo; conditions: 500 ppm
[3] = tested on: potted young oranges (variety: Unshu); experiment: Phytotoxicity of treating compound, Citrus Scab test; conditions: 250 ppm
Experimental: (§1) The resulting solution is sprayed, in an amount corresponding to 600 l/10a per pot, on potted young oranges (variety: Unshu) immediately after fresh leaves are unfolded. After one day, the potted young oranges are inoculated with Elsinoe fawcetti, by spraying a suspension of crushed hyphae thereof containing 50 crushed hyphae per microscopic field (magnification: X100). The suspension is prepared by culturing Elsinoe fawcetti on potato medium at a temperature of 25° C. for 30 days to form hyphae and suspending it in sterilized water.
(§2) After inoculation, the potted young oranges are allowed to stand at a temperature of 25° C. in a moist room for two days and then transferred to a greenhouse. Twenty-three days after inoculation, the leaf infested by citrus scab is examined, i.e., number of pathologic spots on a leaf is examined and the numbers of leaves infested by cirtrus scab are counted. Then, an infestation rate is calculated according to the following equation:

Elsinoe fawcetti = experiment: Citrus Scab-controlling Test; conditions: 250 ppm
Experimental: as §1, §2
Infestation Rate=(Σnf/3N)×100
wherein n is the number of the infested leaves, f is an infestation index and N is the total number of the examined leaves. The infestation index is as follows.
For comparison, the above test is also carried out using a reference compound (benomyl) and plain water.

[4] = tested on: potted apples (variety: Star King); experiment: Phytotoxicity of treating compound, Apple Scab test; conditions: 500 ppm
plant pathogens = conditions: U.S. Pat. No. 2,444,536; cited from earlier work
Alternaria kikuchiana [5] = experiment: Spore-germination Inhibiting Test; format: cell-based; conditions: 10 ppm, 27° C., 20 hours
Experimental: Spore-germination Inhibiting Test for Alternaria kukuchiana An apricot medium is inoculated with Alternaria kikuchiana and incubated at a temperature of 27° C. for 7-10 days to form conidia on the medium. […] 0.02 Ml of the prepared spore suspension containing the compound according to the present invention is dropped on a slide glass and incubated at a temperature of 27° C. under moist conditions for 20 hours. Thereafter, whether or not the spores germinate is examined under a microscope and the spore-germination rate is then calculated.

Alternaria kikuchiana [6] = experiment: Pear Black Spot-controlling Test; conditions: 500 ppm, six days after inoculation
Experimental: Pear Black Spot (Alternaria kikuchiana)-controlling Test
(§3) The resulting solution is sprayed on unfolded leaves of potted young pears (variety: Niju-seiki) in an amount corresponding to 600 l/10a per pot. After air-drying, the unfolded leaves are inoculated with Alternaria kikuchiana, by spraying a suspension of conidia thereof containing 30 conidia per microscopic field (magnification: X200).
(§4) After inoculation, the potted young pears are allowed to stand at a temperature of 27° C. in a moist room for one day and then transferred to a greenhouse. Six days after inoculation, the leaf area infested by pear black spot, i.e., the area of pathologic spots on a leaf is examined on 5 unfolded leaves per pot and an average infestation rate is then calculated.

[7] = tested on: potted young oranges (variety: Unshu); experiment: Phytotoxicity of treating compound, Citrus Melanose test; conditions: 500 ppm
[8] = tested on: potted young pears (variety: Niju-seiki); experiment: Phytotoxicity of treating compound, Pear Black Spot test; conditions: 500 ppm, damaged area on leaves
Experimental: as §3, §4
*The phytotoxicity of the treating compound is evaluated according to the

Diaporthe citri [9] = experiment: Test of Residual Activity against Citrus Melanose; format: in vivo; conditions: 1000 ppm, 23 mm/hr of rain; for Infested Leaves (%): 24 days after inoculation; for Infestation Rate: 24 days, (Σnf/4N)×100; for Number of Leaves Showing Each Infestation Index: 0: index 0 = 0-25% infested area; for Number of Leaves Showing Each Infestation Index: 1: index 1 = 26-50% infested area; for Number of Leaves Showing Each Infestation Index: 2: index 2 = 51-75% infested area; for Number of Leaves Showing Each Infestation Index: 3: index 3 = 76-90% infested area; for Number of Leaves Showing Each Infestation Index: 4: index 4 = 91-100% infested area
Diaporthe citri [10] = experiment: Citrus Melanose-controlling Test; format: in vivo; conditions: 500 ppm; for Infested Leaves (%): 24 days after inoculation; for Infestation Rate / Number of Leaves Showing Infestation Index 0 / Number of Leaves Showing Infestation Index 1 / Number of Leaves Showing Infestation Index 2 / Number of Leaves Showing Infestation Index 3 / Number of Leaves Showing Infestation Index 4: 24 days; for Infestation Rate: (Σnf/4N)×100; for Number of Leaves Showing Infestation Index 0: index 0 = 0-25% infested area; for Number of Leaves Showing Infestation Index 1: index 1 = 26-50% infested area; for Number of Leaves Showing Infestation Index 2: index 2 = 51-75% infested area; for Number of Leaves Showing Infestation Index 3: index 3 = 76-90% infested area; for Number of Leaves Showing Infestation Index 4: index 4 = 91-100% infested area
[11] = tested on: potted young oranges (variety: Unshu); experiment: Phytotoxicity of treating compound, residual activity test; conditions: 1000 ppm, 23 mm/hr of rain
Phytophthora infestans = format: in vivo; conditions: 500 ppm
[12] = tested on: potted potatoes (variety: Chippewa); conditions: 500 ppm
[13] = index 3 = 51-100% infested area

Compound | Spore-germination Rate (%) (Alternaria kikuchiana [5]) | Average Infestation Rate (%) (Based on infested area) (Alternaria kikuchiana [6]) | Phytotoxicity of Treating Compound [7] | Phytotoxicity of Treating Compound [8] | Infested Leaves (%) (Diaporthe citri [9]) | Infestation Rate (Diaporthe citri [9]) | Number of Leaves Showing Each Infestation Index: 0 (Diaporthe citri [9]) | Number of Leaves Showing Each Infestation Index: 1 (Diaporthe citri [9]) | Number of Leaves Showing Each Infestation Index: 2 (Diaporthe citri [9]) | Number of Leaves Showing Each Infestation Index: 3 (Diaporthe citri [9]) | Number of Leaves Showing Each Infestation Index: 4 (Diaporthe citri [9]) | Infested Leaves (%) (Diaporthe citri [10]) | Infestation Rate (Diaporthe citri [10]) | Number of Leaves Showing Infestation Index 0 (Diaporthe citri [10]) | Number of Leaves Showing Infestation Index 1 (Diaporthe citri [10]) | Number of Leaves Showing Infestation Index 2 (Diaporthe citri [10]) | Number of Leaves Showing Infestation Index 3 (Diaporthe citri [10]) | Number of Leaves Showing Infestation Index 4 (Diaporthe citri [10]) | Phytotoxicity of Treating Compound [11] | other results
O=C1C(Cl)=C(Cl)C(=O)N1c1ccc(F)cc1 [fluoroimide, N(p-Fluorophenyl)-2,3-dichloromaleimide] | – | – | – | – | – | – | – | – | – | – | – | – | – | – | – | – | – | – | – | phytotoxicity (crops and trees; pear trees, strawberries, beans, and very many other crops): severe phytotoxicity; leaf-burn (crops and trees; wide variety of crops and trees): liable to cause leaf-burn; Phytotoxicity of Treating Compound ([1]; dilution × 500, 600 l/10 a): ++ (26-50%); Phytotoxicity of Treating Compound ([1]; dilution × 750, 600 l/10 a): + (6-25%); Phytotoxicity of Treating Compound [2]: + (6-25%)
CCCCNC(=O)n1c(NC(=O)OC)nc2ccccc21 [benomyl, Methyl-1-(butylcarbamoyl)-2-benzimidazolecarbamate] | – | – | – | – | – | – | – | – | – | – | – | – | – | – | – | – | – | – | – | Infested Leaves (%) (Venturia inaequalis; seven days after inoculation): 0%; Infestation Rate (Venturia inaequalis; seven days, (Σnf/3N)×100): 0; Number of Leaves Showing Each Infestation Index: 0 (Venturia inaequalis; index 0 = 0% infested area): 25 leaves; Number of Leaves Showing Each Infestation Index: 1 (Venturia inaequalis; index 1 = 1-25% infested area): 0 leaves; Number of Leaves Showing Each Infestation Index: 2 (Venturia inaequalis; index 2 = 26-50% infested area): 0 leaves; Number of Leaves Showing Each Infestation Index: 3 (Venturia inaequalis; [13]): 0 leaves; Phytotoxicity of Treating Compound [3]: - (0%); Infested Leaves (%) (Elsinoe fawcetti; 23 days after inoculation): 0.6%; Infestation Rate (Elsinoe fawcetti; 23 days, (Σnf/3N)×100): 0.2; Number of Leaves Showing Each Infestation Index: 0 (Elsinoe fawcetti; index 0 = 0 spots per leaf): 328 leaves; Number of Leaves Showing Each Infestation Index: 1 (Elsinoe fawcetti; index 1 = 1-3 spots per leaf): 2 leaves; Number of Leaves Showing Each Infestation Index: 2 (Elsinoe fawcetti; index 2 = 4-10 spots per leaf): 0 leaves; Number of Leaves Showing Each Infestation Index: 3 (Elsinoe fawcetti; index 3 = ≥11 spots per leaf): 0 leaves; Phytotoxicity of Treating Compound [4]: - (0%)
O=C1C=CC(=O)N1c1ccccc1 [N-phenylmaleimide] | – | – | – | – | – | – | – | – | – | – | – | – | – | – | – | – | – | – | – | fungicidal effect (plant pathogens): has a fungicidal effect
O=C1C(Cl)=C(Cl)C(=O)N1c1ccccc1OC(F)F [compound 1, 2,3-dichloro-N-(o-difluoromethoxyphenyl)maleimide] | 7% | 9% | - (0%) | ± (1-5%) | 22% | 7 | 122 leaves | 27 leaves | 6 leaves | 1 leaves | 0 leaves | 0.5% | 0.1 | 221 leaves | 1 leaves | 0 leaves | 0 leaves | 0 leaves | ± (1-5%) | –
ZnMnEthylenebisdithiocarbamate [mancozeb] | – | – | - (0%) | – | 0% | 0 | 159 leaves | 0 leaves | 0 leaves | 0 leaves | 0 leaves | 0% | 0 | 204 leaves | 0 leaves | 0 leaves | 0 leaves | 0 leaves | - (0%) | Infested Leaves (%) (Phytophthora infestans; six days after inoculation): 0%; Infestation Rate (Phytophthora infestans; six days, (Σnf/3N)×100): 0; Number of Leaves Showing Each Infestation Index: 0 (Phytophthora infestans; index 0 = 0% infested area): 20 leaves; Number of Leaves Showing Each Infestation Index: 1 (Phytophthora infestans; index 1 = 1-25% infested area): 0 leaves; Number of Leaves Showing Each Infestation Index: 2 (Phytophthora infestans; index 2 = 26-50% infested area): 0 leaves; Number of Leaves Showing Each Infestation Index: 3 (Phytophthora infestans; [13]): 0 leaves; Phytotoxicity of Treating Compound [12]: - (0%)
O=C1C=CC(=O)N1c1cccc(OC(F)F)c1 [compound 5] | 5% | 55% | ++ (26-50%) | +++ (≥51%) | 87% | 43 | 22 leaves | 43 leaves | 72 leaves | 28 leaves | 7 leaves | 85% | 43 | 33 leaves | 63 leaves | 71 leaves | 30 leaves | 18 leaves | ++ (26-50%) | –

Source: US4455315A, “N-(Difluoromethoxy substituted phenyl)-dichloromaleimides used in agricultural and horticultural fungicidal methods” (Showa Denko Kabushiki Kaisha, priority 1980, dated 1984)
